The record followed here is PubChem BioAssay AID330 (DTP/NCI, 2004).

The assay relates to P388 leukemia ip, CD2F1 mice, survival T/C. Kind of assay: NCI In Vivo Anticancer Drug Screen. Data for tumor model P388 Leukemia (intraperitoneal) in CD2F1 (CDF1) mice. Conditions: endpoint: median survival time, higher = longer survival. The essentials: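 Mice carrying the transplanted tumor received test compound or vehicle. Survival was recorded in each group, and the value is the treated-group measurement divided by that of the vehicle-treated control group.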

[1] abbreviates: dose: 25.0 mg/kg/injection, schedule: Q01DX009 (ip), vehicle: saline with Tween-80.
[2] abbreviates: dose: 50.0 mg/kg/injection, schedule: Q01DX009 (ip), vehicle: saline with Tween-80.
[3] abbreviates: dose: 50.0 mg/kg/injection, schedule: Q01DX005 (ip), vehicle: saline with Tween-80.
Setting [4] is: dose: 100.0 mg/kg/injection, schedule: Q01DX005 (ip), vehicle: saline with Tween-80.
[5] abbreviates: dose: 6.25 mg/kg/injection, schedule: Q01DX009 (ip), vehicle: saline.
Where [6] appears, read: dose: 12.5 mg/kg/injection, schedule: Q01DX009 (ip), vehicle: saline.
[7] abbreviates: dose: 200.0 mg/kg/injection, schedule: Q01DX005 (ip), vehicle: saline with Tween-80.
[8] abbreviates: dose: 50.0 mg/kg/injection, schedule: Q01DX005 (ip), vehicle: Klucel (hydroxypropylcellulose) (HPC).
Setting [9] is: dose: 100.0 mg/kg/injection, schedule: Q01DX005 (ip), vehicle: Klucel (hydroxypropylcellulose) (HPC).
[10] abbreviates: dose: 200.0 mg/kg/injection, schedule: Q01DX005 (ip), vehicle: Klucel (hydroxypropylcellulose) (HPC).
Setting [11] is: dose: 60.0 mg/kg/injection, schedule: Q01DX005 (ip), vehicle: saline with Tween-80.
[12] abbreviates: dose: 120.0 mg/kg/injection, schedule: Q01DX005 (ip), vehicle: saline with Tween-80.
The mark [13] stands for this setting: dose: 240.0 mg/kg/injection, schedule: Q01DX005 (ip), vehicle: saline with Tween-80.

Where “and” joins values, the source holds several entries; their conditions need not be identical. Equal values may be shown once. Inconclusive results and toxic doses are left out.

With `CCCCCCCCCCCC(=O)NCC(=O)NC1C(CO)OC(Nc2ncnc3nc[nH]c23)C(O)C1O` (stereo not given), the T/C by setting is: (dose: 0.06 mg/kg/injection, schedule: Q01DX009 (ip), vehicle: water) 93 % of control; (dose: 0.12 mg/kg/injection, schedule: Q01DX009 (ip), vehicle: water) 101 % of control; (dose: 0.13 mg/kg/injection, schedule: Q01DX009 (ip), vehicle: other) 103 % of control; (dose: 0.25 mg/kg/injection, schedule: Q01DX009 (ip), vehicle: other) 113 % of control; (dose: 0.25 mg/kg/injection, schedule: Q01DX009 (ip), vehicle: water) 99 % of control; (dose: 0.5 mg/kg/injection, schedule: Q01DX009 (ip), vehicle: other) 121 % of control. In addition, the T/C (dose: 0.5 mg/kg/injection, schedule: Q01DX009 (ip), vehicle: water) is 99 % of control; the T/C (dose: 1.0 mg/kg/injection, schedule: Q01DX009 (ip), vehicle: water) was 105 % of control; the T/C (dose: 2.0 mg/kg/injection, schedule: Q01DX009 (ip), vehicle: other) was 100 % of control and 86 % of control; the T/C (dose: 2.0 mg/kg/injection, schedule: Q01DX009 (ip), vehicle: water) is 124 % of control.

In the case of `C=C(CBr)C(=O)OCC`, the T/C by setting is: (dose: 7.5 mg/kg/injection, schedule: Q01DX005 (ip), vehicle: saline with Tween-80) 103 % of control; (dose: 15.0 mg/kg/injection, schedule: Q01DX005 (ip), vehicle: saline with Tween-80) 88 % of control; (dose: 30.0 mg/kg/injection, schedule: Q01DX005 (ip), vehicle: saline with Tween-80) 103 % of control.

With `CCC(C)(C)C(=O)Nc1cccc(OC(=O)NC)c1`, the T/C under setting [1] was 100 % of control; the T/C under setting [2] is 92 % of control; the T/C (dose: 100.0 mg/kg/injection, schedule: Q01DX009 (ip), vehicle: saline with Tween-80) was 101 % of control.

With `CC(/C=C/c1ccccc1)=N\NS(=O)(=O)c1ccc(C)cc1`, the T/C was 95 % of control under setting [3] and 91 % of control under setting [4].

As for `CSc1sc(C#N)c(N)c1N=Cc1ccccc1`, the T/C was 106 % of control (dose: 12.5 mg/kg/injection, schedule: Q04DX002 (ip), vehicle: saline with Tween-80); 101 % of control (dose: 25.0 mg/kg/injection, schedule: Q04DX002 (ip), vehicle: saline with Tween-80); 97 % of control (dose: 50.0 mg/kg/injection, schedule: Q04DX002 (ip), vehicle: saline with Tween-80).

`O=C1C2C3CCC(O3)C2C(=O)N1SC(Cl)(Cl)Cl` (stereo not given): the T/C is, setting by setting: (dose: 3.12 mg/kg/injection, schedule: Q01DX009 (ip), vehicle: saline) 101 % of control; under setting [5], 108 % of control; under setting [6], 100 % of control.

Consider `C/C(=C\c1cc2cc(C(=N)N)ccc2o1)c1cc2cc(C(=N)N)ccc2o1`, for which the T/C (dose: 400.0 mg/kg/injection, schedule: Q04DX002 (ip), vehicle: saline) was 159 % of control.

Turning to `O=C1c2ccccc2C(=O)N1c1ccccc1`, the T/C reads like this: (dose: 100.0 mg/kg/injection, schedule: Q01DX001 (ip), vehicle: Klucel (hydroxypropylcellulose) (HPC)) 99 % of control; (dose: 200.0 mg/kg/injection, schedule: Q01DX001 (ip), vehicle: Klucel (hydroxypropylcellulose) (HPC)) 100 % of control; (dose: 400.0 mg/kg/injection, schedule: Q01DX001 (ip), vehicle: Klucel (hydroxypropylcellulose) (HPC)) 100 % of control.

On to `COC(=O)C1CO[C@@H](C(C)(C)C)N1C=O` (stereo not given in full), for which the T/C reads like this: (dose: 60.0 mg/kg/injection, schedule: Q01DX005 (ip), vehicle: saline) 104 % of control; (dose: 120.0 mg/kg/injection, schedule: Q01DX005 (ip), vehicle: saline) 110 % of control; (dose: 240.0 mg/kg/injection, schedule: Q01DX005 (ip), vehicle: saline) 101 % of control.

As for `CC1(C)CO[Se](=O)OC1`, the T/C (dose: 3.13 mg/kg/injection, schedule: Q01DX009 (ip), vehicle: saline) is 114 % of control.

Turning to `COc1cccc(C(c2cc3c(cc2O)OCO3)N2CCCC2)c1O` (stereo not given), the T/C (dose: 60.0 mg/kg/injection, schedule: Q01DX005 (ip), vehicle: Klucel (hydroxypropylcellulose) (HPC)) was 109 % of control; the T/C (dose: 120.0 mg/kg/injection, schedule: Q01DX005 (ip), vehicle: Klucel (hydroxypropylcellulose) (HPC)) was 109 % of control; the T/C (dose: 240.0 mg/kg/injection, schedule: Q01DX005 (ip), vehicle: Klucel (hydroxypropylcellulose) (HPC)) was 115 % of control.

For `O=P1(c2ccccc2)C=C(c2ccccc2)NC(c2ccccc2)=C1`, the T/C under setting [3] is 93 % of control and the T/C under setting [7] was 90 % of control.

Take `CCc1nc(-c2ccccc2)nc2c1nc(-c1ccccc1)n2Nc1ccccc1`: the T/C is, setting by setting: under setting [3], 90 % of control; under setting [4], 96 % of control; under setting [7], 91 % of control.

`C=C[Se](=C(C(=O)c1ccccc1)C(=O)c1ccccc1)c1ccccc1` (stereo not given): the T/C under setting [5] was 96 % of control; the T/C under setting [6] is 103 % of control; the T/C (dose: 25.0 mg/kg/injection, schedule: Q01DX009 (ip), vehicle: saline) was 99 % of control; the T/C (dose: 50.0 mg/kg/injection, schedule: Q01DX009 (ip), vehicle: saline) is 107 % of control; the T/C (dose: 100.0 mg/kg/injection, schedule: Q01DX009 (ip), vehicle: saline) is 113 % of control; the T/C (dose: 200.0 mg/kg/injection, schedule: Q01DX009 (ip), vehicle: saline) was 113 % of control.

As for `[CH3][Sn]1([Cl])[O]CCNCC[O]1`, the T/C reads like this: (dose: 25.0 mg/kg/injection, schedule: Q01DX005 (ip), vehicle: Klucel (hydroxypropylcellulose) (HPC)) 102 % of control and 97 % of control; under setting [8], 98 % of control and 100 % of control and 92 % of control; under setting [9], 101 % of control and 109 % of control and 94 % of control; under setting [10], 102 % of control and 103 % of control.

With `CC1(C)OC2(C=CC(C)([N+](=O)[O-])C=C2)OC1=O` (stereo not given), the T/C under setting [8] is 101 % of control, the T/C under setting [9] is 94 % of control and the T/C under setting [10] was 100 % of control.

Take `COc1cccc2c1[C@@]1(C)C3C(=O)OC(C)(c4ccccc43)[C@@]1(C)C2=O` (stereo not given in full): the T/C is 108 % of control under setting [11], 110 % of control under setting [12] and 103 % of control under setting [13].

With `COC(=O)Nc1nc2ccc(C(=O)OC(C)C)cc2[nH]1`, the T/C (dose: 100.0 mg/kg/injection, schedule: Q04DX003 (ip), vehicle: saline with Tween-80) was 111 % of control and 116 % of control; the T/C (dose: 200.0 mg/kg/injection, schedule: Q04DX003 (ip), vehicle: saline with Tween-80) was 118 % of control; the T/C (dose: 800.0 mg/kg/injection, schedule: Q04DX003 (ip), vehicle: saline with Tween-80) was 155 % of control.

Regarding `O=[N+]([O-])c1cccc(/C=N/NS(=O)(=O)c2ccc(F)cc2)c1O`, the T/C by setting is: under setting [11], 95 % of control; under setting [12], 93 % of control; under setting [13], 106 % of control.

With `CN(C)c1ccc(/C=C/c2ccnc3c(O)ccc(O)c23)cc1`, the T/C runs as follows: (dose: 12.5 mg/kg/injection, schedule: Q01DX009 (ip), vehicle: saline with Tween-80) 91 % of control; under setting [1], 94 % of control; under setting [2], 92 % of control.
